# Values joined by “and” are separate entries in the source; they are usually repeats but may differ in a detail not shown here. Identical values can stand only once. Inconclusive results and toxic doses are left out.
# Test system: BDF1 mice, P388 leukemia ip, median survival T/C
# Assay: NCI In Vivo Anticancer Drug Screen. Data for tumor model P388 Leukemia (intraperitoneal) in B6D2F1 (BDF1) mice
# Settings: endpoint: median survival time, higher = longer survival
# How it was run: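 Compound-treated tumour-bearing mice were compared with vehicle-treated controls. Survival was recorded, and the value is the treated-group measurement divided by the control-group measurement (T/C).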
# [1] = dose: 50.0 mg/kg/injection, schedule: Q01DX009 (ip), vehicle: saline with Tween-80
# [2] = dose: 100.0 mg/kg/injection, schedule: Q01DX009 (ip), vehicle: saline with Tween-80
# [3] = dose: 200.0 mg/kg/injection, schedule: Q01DX009 (ip), vehicle: saline with Tween-80
# [4] = dose: 200.0 mg/kg/injection, schedule: Q01DX009 (ip), vehicle: saline
# [5] = dose: 100.0 mg/kg/injection, schedule: Q04DX003 (ip), vehicle: saline
# [6] = dose: 200.0 mg/kg/injection, schedule: Q04DX003 (ip), vehicle: saline
# [7] = dose: 25.0 mg/kg/injection, schedule: Q01DX009 (ip), vehicle: saline
# [8] = dose: 50.0 mg/kg/injection, schedule: Q01DX009 (ip), vehicle: saline
# [9] = dose: 100.0 mg/kg/injection, schedule: Q01DX009 (ip), vehicle: saline
compound,measurement,setting,value
Cc1cc(C)[s+]s1,T/C,"dose: 0.78 mg/kg/injection, schedule: Q01DX009 (ip), vehicle: water",91 % of control
same,T/C,"dose: 3.12 mg/kg/injection, schedule: Q01DX009 (ip), vehicle: water",97 % of control
same,T/C,"dose: 6.25 mg/kg/injection, schedule: Q01DX009 (ip), vehicle: water",91 % of control
CCCN(CCC)CC(O)c1cc2c(Cl)cc(Cl)cc2c2cc(C(F)(F)F)ccc12 (stereo not given),T/C,[1],100 % of control
same,T/C,[2],100 % of control
same,T/C,[3],106 % of control
O=C(O)C(=O)O.OO.OO.OO.[Nb],T/C,[4],86 % of control
CN(C)C,T/C,"dose: 50.0 mg/kg/injection, schedule: Q04DX003 (ip), vehicle: saline",100 % of control
same,T/C,[5],100 % of control
same,T/C,[6],109 % of control
N#Cc1cccc(O)c1,T/C,[1],104 % of control
same,T/C,[2],100 % of control
same,T/C,[3],109 % of control
C[C@]12CC[C@H](OC3OC(CO)C(O)C(O)C3O)C[C@H]1CC[C@@H]1[C@@H]2CC[C@]2(C)[C@@H](C3=CCOC3=O)CC[C@]12O (stereo not given in full),T/C,"dose: 0.1 mg/kg/injection, schedule: Q01DX010 (ip), vehicle: saline",110 % of control
same,T/C,"dose: 0.2 mg/kg/injection, schedule: Q01DX010 (ip), vehicle: saline",105 % of control
same,T/C,"dose: 0.25 mg/kg/injection, schedule: Q01DX010 (ip), vehicle: saline",100 % of control
same,T/C,"dose: 0.4 mg/kg/injection, schedule: Q01DX010 (ip), vehicle: saline",105 % of control
same,T/C,"dose: 0.5 mg/kg/injection, schedule: Q01DX010 (ip), vehicle: saline",100 % of control
same,T/C,"dose: 0.8 mg/kg/injection, schedule: Q01DX010 (ip), vehicle: saline",100 % of control
same,T/C,"dose: 1.0 mg/kg/injection, schedule: Q01DX010 (ip), vehicle: saline",100 % of control
c1ccc(Sc2c(Sc3ccccc3)c(Sc3ccccc3)c(Sc3ccccc3)c(Sc3ccccc3)c2Sc2ccccc2)cc1,T/C,"dose: 100.0 mg/kg/injection, schedule: Q04DX003 (ip), vehicle: saline with Tween-80",99 % of control
same,T/C,"dose: 200.0 mg/kg/injection, schedule: Q04DX003 (ip), vehicle: saline with Tween-80",101 % of control
same,T/C,"dose: 400.0 mg/kg/injection, schedule: Q04DX003 (ip), vehicle: saline with Tween-80",90 % of control
CC(C)n1cc2c(N)ncnc2n1,T/C,"dose: 12.5 mg/kg/injection, schedule: Q01DX009 (ip), vehicle: saline",92 % of control
same,T/C,[7],92 % of control
same,T/C,[8],100 % of control and 120 % of control
same,T/C,[9],100 % of control
same,T/C,[5],92 % of control
same,T/C,[6],100 % of control
NC(=O)/C=C/C(=O)O,T/C,[7],101 % of control
same,T/C,[8],93 % of control
same,T/C,[9],103 % of control
same,T/C,[4],101 % of control
O=NN(CCBr)C(=O)NCCBr,T/C,"dose: 30.0 mg/kg/injection, schedule: Q01DX009 (ip), vehicle: gum acacia",158 % of control
same,T/C,"dose: 44.0 mg/kg/injection, schedule: Q01DX009 (ip), vehicle: gum acacia",158 % of control
same,T/C,"dose: 50.0 mg/kg/injection, schedule: Q01DX009 (ip), vehicle: gum acacia",196 % of control
same,T/C,"dose: 67.0 mg/kg/injection, schedule: Q01DX009 (ip), vehicle: gum acacia",169 % of control and 191 % of control
same,T/C,"dose: 67.0 mg/kg/injection, schedule: Q04DX003 (ip), vehicle: gum acacia",165 % of control
same,T/C,"dose: 100.0 mg/kg/injection, schedule: Q01DX009 (ip), vehicle: Klucel (hydroxypropylcellulose) (HPC)",112 % of control
same,T/C,"dose: 100.0 mg/kg/injection, schedule: Q01DX009 (ip), vehicle: gum acacia",192 % of control and 200 % of control
same,T/C,"dose: 100.0 mg/kg/injection, schedule: Q04DX003 (ip), vehicle: gum acacia",173 % of control
same,T/C,[5],118 % of control
same,T/C,"dose: 150.0 mg/kg/injection, schedule: Q01DX009 (ip), vehicle: gum acacia",226 % of control
same,T/C,"dose: 150.0 mg/kg/injection, schedule: Q04DX003 (ip), vehicle: gum acacia",230 % of control
same,T/C,"dose: 200.0 mg/kg/injection, schedule: Q01DX009 (ip), vehicle: Klucel (hydroxypropylcellulose) (HPC)",154 % of control
same,T/C,"dose: 400.0 mg/kg/injection, schedule: Q01DX009 (ip), vehicle: Klucel (hydroxypropylcellulose) (HPC)",170 % of control
same,T/C,"dose: 400.0 mg/kg/injection, schedule: Q04DX003 (ip), vehicle: saline",190 % of control
CC(=O)Nc1cc2c3c(c1)CCN3CCC2,T/C,"dose: 3.13 mg/kg/injection, schedule: Q01DX001 (ip), vehicle: saline with Tween-80",95 % of control
same,T/C,"dose: 6.25 mg/kg/injection, schedule: Q01DX001 (ip), vehicle: saline with Tween-80",95 % of control
same,T/C,"dose: 12.5 mg/kg/injection, schedule: Q01DX001 (ip), vehicle: saline with Tween-80",90 % of control

# From PubChem BioAssay AID328 (DTP/NCI, 2004)
